Columns and labels:
[1] = system: leukaemia cell line L1210; assay: Test (b): inhibition of growth of leukaemia cell line L1210 in cell culture; format: cell-based; details: Mus musculus
Source text: (b) An assay which determines the ability of a test compound to inhibit the growth of the leukaemia cell line L1210 in cell culture.

[2] = system: human breast cancer cell line MCF-7; assay: Test (c): inhibition of growth of human breast cancer cell line MCF-7 in cell culture; format: cell-based; details: MCF7, MCF-7 cell culture growth
Source text: (c) An assay which determines the ability of a test compound to inhibit the growth of the human breast cancer cell line MCF-7 in cell culture.

thymidylate synthase = molecular target: T1, thymidylate synthase (Mus musculus, UniProt P07607); assay: Test (a): in vitro inhibition of thymidylate synthase (partially purified from L1210 mouse leukaemia cells); format: biochemical
T1 construct: obtained in partially purified form from L1210 mouse leukaemia cells; endogenous in cells; host or cells: L1210 mouse leukaemia cells
Source text: (a) An in vitro assay which determines the ability of a test compound to inhibit the enzyme thymidylate synthase.

[3] = system: human breast, ovarian and liver cancer; details: clinical trials; cited from earlier work
[4] = particularly liver and kidney; cited from earlier work

T1 sequence (P07607 whole entry): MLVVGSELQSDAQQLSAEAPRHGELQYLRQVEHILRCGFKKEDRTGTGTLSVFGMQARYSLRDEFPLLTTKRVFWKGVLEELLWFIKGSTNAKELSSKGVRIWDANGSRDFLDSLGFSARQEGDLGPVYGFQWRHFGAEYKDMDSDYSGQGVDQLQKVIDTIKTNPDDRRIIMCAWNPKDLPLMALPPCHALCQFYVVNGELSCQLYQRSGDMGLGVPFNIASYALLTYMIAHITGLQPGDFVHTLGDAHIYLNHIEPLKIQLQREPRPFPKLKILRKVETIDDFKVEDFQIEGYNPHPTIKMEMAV

## C#CCN(Cc1cc2c(=O)[nH]c(C)nc2cc1C)c1ccc(C(=O)N[C@@H](CCc2nnn[nH]2)C(=O)O)c(F)c1 [(2S)-2-{o-fluoro-p-[N-(2,7-dimethyl-4-oxo-3,4-dihydroquinazolin-6-ylmethyl)-N-(prop-2-ynyl)amino]benzamido}-4-(tetrazol-5-yl)butyric acid]
[1]
  IC50: ~20 nM
[2]
  IC50: ~10 nM

## Cc1nc2cc(C)c(CN(C)c3ccc(C(=O)N[C@@H](CCc4nnn[nH]4)C(=O)O)c(F)c3)cc2c(=O)[nH]1 [(2S)-2-{o-fluoro-p-[N-(2,7-dimethyl-4-oxo-3,4-dihydroquinazolin-6-ylmethyl)-N-methylamino]benzamido}-4-(tetrazol-5-yl)butyric acid]
Thymidylate synthase
  IC50: ~2 nM
[1]
  IC50: ~70 nM
[2]
  IC50: ~40 nM

## C#CCN(Cc1ccc2nc(C)[nH]c(=O)c2c1)c1ccc(C(=O)N[C@@H](CCc2nnn[nH]2)C(=O)O)cc1 [(2S)-2-{p-[N-(2-methyl-4-oxo-3,4-dihydroquinazolin-6-ylmethyl)-N-(prop-2-ynyl)amino]benzamido}-4-(tetrazol-5-yl)butyric acid]
Thymidylate synthase
  IC50: ~13 nM
[1]
  IC50: ~120 nM
[2]
  IC50: ~40 nM

## C#CCN(Cc1ccc2nc(N)[nH]c(=O)c2c1)c1ccc(C(=O)N[C@@H](CCC(=O)O)C(=O)O)cc1 [CB3717]
[3]
  activity against human breast, ovarian and liver cancer: promising activity against human breast, ovarian and liver cancer
[4]
  symptoms of toxicity in humans: shows symptoms of toxicity in humans, particularly in relation to the liver and kidney

— US5955463A, “Quinazoline thymidylate synthase inhibitors” (Zeneca Limited, priority 1992, dated 1999)
